Earlier results as cited in patent US20160120822A1, “COMPOSITION CONTAINING ROTIGOTINE AND USE THEREOF AND TRANSDERMAL PATCH CONTAINING THE COMPOSITION” (Jiangsu Kangbeide Pharmaceuticals Co. Ltd., priority 2007, published 2016).

Settings: oral formulations

clearance after oral intake: overly high
duration of action after oral intake: relatively short
Structure (SMILES): CCCN(CCc1cccs1)[C@H]1CCc2c(O)cccc2C1 [Rotigotine]
